# According to patent publication US20240083857A1, “2-Methyl-Quinazolines” (Bayer Pharma Aktiengesellschaft, priority 2017, published 2024):
# Assays:
# [1] = target: human SOS1 (loading of human K-Ras^G12C-GDP with fluorescent GTP-analog) (Homo sapiens, UniProt Q07889); test: Biochemical assay 3: K-Ras^G12C activation assay by hSOS1 (HTRF); conditions: no GTP; for IC50: read-out: Assay 3 (KRAS-Activation by SOS no GTP) activity expressed as IC50; for inhibition at 20 µM: read-out: Assay 3 (KRAS-Activation by SOS no GTP) activity expressed as % inhibition at 20 μM
# [2] = target: human SOS1 (nucleotide exchange of K-Ras^G12C) (Homo sapiens, UniProt Q07889); test: Biochemical assay 2: K-Ras^G12C activation assay by hSOS1 at high GTP concentration (HTRF); conditions: high GTP; read-out: Assay 2 (KRAS-Activation by SOS high GTP) activity expressed as IC50
SMILES,IC50 [1],IC50 [2],inhibition at 20 µM [1]
"COc1cc2nc(C)nc(NC(C)c3ccc(-c4cnc5n4CCC5)s3)c2cc1OC (single isomer, unassigned; enantiomer 1) [Example 328, N-{1-[5-(6,7-dihydro-5H-pyrrolo[1,2-a]imidazol-3-yl)thiophen-2-yl]ethyl}-6,7-dimethoxy-2-methylquinazolin-4-amine, Enantiomer 1]",0.669 µM,0.526 µM,
"COc1cc2nc(C)nc(NC(C)c3ccc(-c4cnc5n4CCC5)s3)c2cc1OC (single isomer, unassigned; enantiomer 2) [Example 329, N-{1-[5-(6,7-dihydro-5H-pyrrolo[1,2-a]imidazol-3-yl)thiophen-2-yl]ethyl}-6,7-dimethoxy-2-methylquinazolin-4-amine, Enantiomer 2]",10.6 µM,6.47 µM,
"COc1cc2nc(C)nc(NC(C)c3ccc(-c4ccc(F)cc4CNC(=O)[C@H]4CCCN4)s3)c2cc1OC (stereo in doubt) [Example 316, N-[2-(5-{1-[(6,7-dimethoxy-2-methylquinazolin-4-yl)amino]ethyl}thiophen-2-yl)-5-fluorobenzyl]-prolinamide]",0.308 µM,0.284 µM,
"COc1cc2nc(C)nc(NC(C)c3cccc4scnc34)c2cc1OC (stereo not shown) [Example 14, N-[1-(1,3-benzothiazol-4-yl)ethyl]-6,7-dimethoxy-2-methylquinazolin-4-amine]",1.83 µM,0.608 µM,
"COc1cc2nc(C)nc(NC(C)c3cccc4ccsc34)c2cc1OC (stereo not shown) [Example 15, N-[1-(1-benzothiophen-7-yl)ethyl]-6,7-dimethoxy-2-methylquinazolin-4-amine]",0.324 µM,0.0911 µM,
"COc1cc2nc(C)nc(NC(C)c3cc(C)cc4[nH]ncc34)c2cc1OC (stereo not shown) [Example 16, 6,7-dimethoxy-2-methyl-N-[1-(6-methyl-1H-indazol-4-yl)ethyl]quinazolin-4-amine]",8.17 µM,3.02 µM,
"COc1cc2nc(C)nc(NC(C)c3cccc4c3cnn4C)c2cc1OC (stereo not shown) [Example 17, 6,7-dimethoxy-2-methyl-N-[1-(1-methyl-1H-indazol-4-yl)ethyl]quinazolin-4-amine]",0.712 µM,0.297 µM,
"COc1cc2nc(C)nc(NC(C)c3c(F)ccc4[nH]ncc34)c2cc1OC (stereo not shown) [Example 18, N-[1-(5-fluoro-1H-indazol-4-yl)ethyl]-6,7-dimethoxy-2-methylquinazolin-4-amine]",10.5 µM,7.68 µM,
"COc1cc2nc(C)nc(NC(C)c3ccc4c(c3)OCCO4)c2cc1OC (stereo not shown) [Example 19, N-[1-(2,3-dihydro-1,4-benzodioxin-6-yl)ethyl]-6,7-dimethoxy-2-methylquinazolin-4-amine]",,6.55 µM,44%
"COc1cc2nc(C)nc(NC(C)c3cc4ccccc4o3)c2cc1OC (stereo not shown) [Example 20, N-[1-(1-benzofuran-2-yl)ethyl]-6,7-dimethoxy-2-methylquinazolin-4-amine]",,8.2 µM,41%
"COc1cc2nc(C)nc(NC(C)c3cccc(OC)c3OC)c2cc1OC (stereo not shown) [Example 21, N-[1-(2,3-dimethoxyphenyl)ethyl]-6,7-dimethoxy-2-methylquinazolin-4-amine]",11.1 µM,3.23 µM,
"COc1cc2nc(C)nc(N[C@H](C)c3cccc(-c4ccccc4CN)c3)c2cc1OC [Example 258, N-{(1R)-1-[2′-(aminomethyl)biphenyl-3-yl]ethyl}-6,7-dimethoxy-2-methylquinazolin-4-amine]",0.245 µM,0.19 µM,
"COc1cc2nc(C)nc(NC(C)c3csc(-c4ccccc4CN)c3)c2cc1OC (stereo not shown) [Example 259, N-[1-{5-[2-(aminomethyl)phenyl]thiophen-3-yl}ethyl]-6,7-dimethoxy-2-methylquinazolin-4-amine]",0.65 µM,0.435 µM,
"COc1cc2nc(C)nc(N[C@H](C)c3cccc(CN)c3)c2cc1OC [Example 260, N-{(1R)-1-[3-(aminomethyl)phenyl]ethyl}-6,7-dimethoxy-2-methylquinazolin-4-amine]",5.68 µM,2.04 µM,
